We go through four compounds from publication PMC13185115, “Photovermellogens: Minimalistic Pyridinium-Based Acylhydrazones with Photoswitchable Basicity for Operation in Aqueous Media” (The Journal of Organic Chemistry, 2026).

The series in a line: Photoisomerization kinetics and quantum yields of the protonated forms (UV-vis). Type of series: physicochemical. Particulars: for k E-PH+ to Z-PH+ photoisomerization: pH 6 (pH 5 for P bH·Cl); for Φ Z→E photoisomerization quantum yield: irradiation at 440 nm. The text has this: Photoisomerization studies were subsequently carried out in acidic medium (pH = pK a – 2) in order to assess the photoresponse of the protonated species. Under these conditions, the anticipated photoisomerization of the thermally stable E-P a–dH^+ species was investigated by UV–vis absorption spectroscopy under irradiation at 254 nm. […] It is noteworthy that the irradiation wavelength can be extended to 365 nm, yielding virtually the same observations as for 254 nm irradiation (see footnotes of Table ). Irradiation also produced clear NMR spectral changes that support the occurrence of the E→Z isomerization. In essence, the signals Hf–h of the phenyl moiety were only slightly affected, whereas those of the pyridinium and acylhydrazone fragments shifted markedly, consistent with the formation of an intramolecular hydrogen bond in the Z-P a–cH^+ species. The reverse Z→E transformation of the protonated forms P a–cH^+ was also achieved upon irradiation at λ > 420 nm, giving lower quantum yields and less favorable PSDs (Figures S145–S147, S149–154, S1).
5. Isomerization Photochemical Data.
5.1. E-P a-cH+→Z-P a-cH+ photoisomerization kinetics.
Figure S138. Left: variations in the absorption spectrum of P aH·Cl (20.6 µM, pH = 6) upon irradiation at 254 nm; the absorption spectrum of the E-form is shown in red; the photostationary state is in blue. Right: Kinetics (monitored at 320 nm) for the E-P aH+ to Z-P aH+ photoisomerization (20.6 µM) upon irradiation at 254 nm (I 0 = 1.37 × 10 –7 mol/s); k = 1.55 × 10 –2 […]
Figure S139. Left: variations in the absorption spectrum of P aH·Cl (17.5 µM, pH = 6) upon irradiation at 365 nm; the absorption spectrum of the E-form is shown in red; the photostationary state is in blue. Right: Kinetics (monitored at 400 nm) for the E-P aH+ to Z-P aH+ photoisomerization (17.5 µM) upon irradiation at 365 nm (I 0 = 2.6 × 10 –7 mol/s); k = 6.4 × 10 –2 […]
Figure S140. Left: variations in the absorption spectrum of P bH·Cl (7.9 µM, pH = 5) upon […]
state is in blue. Right: Kinetics (monitored at 370 nm) for the E-P bH+ to Z-P bH+ photoisomerization (7.9 µM) upon irradiation at 254 nm (I 0 = 1.41 × 10 –7 mol/s); k = 4.91 × 10 –2 […]
Figure S141. Left: variations in the absorption spectrum of P bH·Cl (10 µM, pH = 5) upon […]
state is in blue. Right: Kinetics (monitored at 420 nm) for the E-P bH+ to Z-P bH+ photoisomerization (10 µM) upon irradiation at 365 nm (I 0 = 2.0 × 10 –7 mol/s); k = 3.0 × 10 –2 s–1.
Figure S142. Left: variations in the absorption spectrum of P cH·Cl (9 µM, pH = 6) upon […]
state is in blue. Right: Kinetics (monitored at 377 nm) of the E-P cH+ to Z-P cH+ photoisomerization […]
Figure S143. Left: variations in the absorption spectrum of P cH·Cl (10 µM, pH = 6) upon […]
state is in blue. Right: Kinetics (monitored at 410 nm) of the E-P cH+ to Z-P cH+ photoisomerization

Where [1] appears, read: irradiation at 254 nm (I0 1.37–1.41 × 10–7 mol/s).
Setting [2] is: irradiation at 254 nm, pH 6, error ± 20%.
The mark [3] stands for this setting: irradiation at 365 nm (I0 2.0–2.6 × 10–7 mol/s).

`C[n+]1ccc(NN=CC(=O)c2ccccc2)cc1` [P aH^+]: the “k E-PH+ to Z-PH+ photoisomerization” value under setting [1] is on record as 1.55 10^–2 s^–1 and the “k E-PH+ to Z-PH+ photoisomerization” value under setting [3] is given as 6.4 10^–2 s^–1. The “Φ E→Z photoisomerization quantum yield” value runs as follows: under setting [2], 0.20; (irradiation at 365 nm) 0.22. Moreover, the “Φ Z→E photoisomerization quantum yield” value (pH 6, error ± 20%) came out at 0.001.
Turning to `C[n+]1ccc(NN=CC(=O)c2ccccc2)c2ccccc21` [P bH^+], the “k E-PH+ to Z-PH+ photoisomerization” value was 4.91 10^–2 s^–1 under setting [1] and 3.0 10^–2 s^–1 under setting [3]. In addition, the “Φ E→Z photoisomerization quantum yield” value under setting [2] is reported as 0.38 and the “Φ E→Z photoisomerization quantum yield” value (irradiation at 365 nm) was 0.35. The “Φ Z→E photoisomerization quantum yield” value (pH 6, error ± 20%) came to 0.002.
As for `O=C(C=NNc1cc[n+](-c2ccccc2)cc1)c1ccccc1` [P cH^+], the “k E-PH+ to Z-PH+ photoisomerization” value under setting [1] is recorded as 4.90 10^–2 s^–1 and the “k E-PH+ to Z-PH+ photoisomerization” value under setting [3] is 2.0 10^–2 s^–1. Also, the “Φ E→Z photoisomerization quantum yield” value under setting [2] was determined as 0.34 and the “Φ E→Z photoisomerization quantum yield” value (irradiation at 365 nm) came out at 0.34. Further, the “Φ Z→E photoisomerization quantum yield” value (pH 6, error ± 20%) was found to be 0.008.
For `C[n+]1ccc(-c2ccc(NN=CC(=O)c3ccccc3)cc2)cc1` [P dH^+], where the note is “irradiation at 254 nm, acidic medium pH = pKa – 2”, the “E→Z photoisomerization of the protonated form (UV-vis changes)” value was “no detectable changes”.
